Laboratory results published in ChEMBL document CHEMBL4000237, “Synthesis and biological evaluation of thiazole derivatives as novel USP7 inhibitors” (Bioorg Med Chem Lett, 2017).

Columns and labels:
HCT-116 = experiment: Antiproliferative activity against human HCT116 cells expressing wild type p53 assessed as decrease in cell viability after 72 hrs by MTT assay; details: HCT-116, 72 h
[1] = target: Ubiquitin carboxyl-terminal hydrolase 7 (Homo sapiens, UniProt Q93009); experiment: Inhibition of USP7 (unknown origin) using Ub-Rho as substrate preincubated for 30 mins followed by substrate addition and subsequent incubation in dark for 3 hrs by fluorescence assay
NCI-H1299 = experiment: Antiproliferative activity against p53 deficient human NCI-H1299 cells assessed as decrease in cell viability after 72 hrs by MTT assay; format: functional, cell-based; details: NCI-H1299, 72 h
[2] = Antiproliferative activity against human […] cells expressing p53 mutant assessed as decrease in cell viability after 72 hrs by MTT assay; format: functional, cell-based

Chain of Ubiquitin carboxyl-terminal hydrolase 7 (Q93009 whole entry): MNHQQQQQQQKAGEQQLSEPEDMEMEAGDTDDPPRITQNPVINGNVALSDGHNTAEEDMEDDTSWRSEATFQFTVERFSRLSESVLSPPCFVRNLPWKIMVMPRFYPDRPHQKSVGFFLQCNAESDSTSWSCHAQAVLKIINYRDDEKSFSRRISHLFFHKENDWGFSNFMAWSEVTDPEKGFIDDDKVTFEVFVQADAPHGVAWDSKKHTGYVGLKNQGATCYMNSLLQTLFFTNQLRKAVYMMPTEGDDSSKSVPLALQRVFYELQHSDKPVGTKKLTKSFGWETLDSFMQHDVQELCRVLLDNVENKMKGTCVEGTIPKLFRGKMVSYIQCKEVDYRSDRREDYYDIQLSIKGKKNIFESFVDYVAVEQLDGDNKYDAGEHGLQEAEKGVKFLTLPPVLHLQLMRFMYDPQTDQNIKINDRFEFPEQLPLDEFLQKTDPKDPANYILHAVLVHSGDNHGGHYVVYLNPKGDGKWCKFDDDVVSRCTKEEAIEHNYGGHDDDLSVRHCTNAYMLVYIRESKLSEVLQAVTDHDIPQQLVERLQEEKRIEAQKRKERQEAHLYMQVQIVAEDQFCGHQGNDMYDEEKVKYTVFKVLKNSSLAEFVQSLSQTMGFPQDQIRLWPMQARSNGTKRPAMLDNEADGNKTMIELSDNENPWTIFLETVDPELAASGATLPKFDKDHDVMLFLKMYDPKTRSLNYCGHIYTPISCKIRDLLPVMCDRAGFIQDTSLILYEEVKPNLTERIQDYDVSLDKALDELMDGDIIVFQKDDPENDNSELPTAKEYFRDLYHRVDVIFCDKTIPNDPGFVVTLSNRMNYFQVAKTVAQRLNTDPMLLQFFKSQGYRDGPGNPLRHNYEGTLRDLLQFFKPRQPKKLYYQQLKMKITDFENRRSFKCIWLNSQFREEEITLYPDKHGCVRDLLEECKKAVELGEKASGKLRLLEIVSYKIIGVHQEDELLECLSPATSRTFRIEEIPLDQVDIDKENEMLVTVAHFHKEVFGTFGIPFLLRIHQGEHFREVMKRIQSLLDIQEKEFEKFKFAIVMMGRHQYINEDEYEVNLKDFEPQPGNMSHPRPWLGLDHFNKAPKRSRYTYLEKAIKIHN

| IC50 (HCT-116) | IC50 [1] | IC50 (NCI-H1299) | Structure (SMILES) | IC50 [2] |
| --- | --- | --- | --- | --- |
| > 50 µM | > 50 µM | – | CC(=O)c1ncc(Sc2cccc(Cl)c2Cl)s1 | – |
| 18.6 µM | 6.95 µM | – | CC(O)c1nc([N+](=O)[O-])c(Sc2c(Cl)cncc2Cl)s1 (stereo unspecified) | – |
| 19.3 µM | 4.49 µM | – | CC(=O)c1nc([N+](=O)[O-])c(Sc2c(Cl)cccc2Cl)s1 | – |
| 13.5 µM | 4.21 µM | – | O=C(NCc1ccccc1)c1nc([N+](=O)[O-])c(Sc2c(Cl)cncc2Cl)s1 | – |
| 9.29 µM | 9.93 µM | – | CC(=O)c1nc([N+](=O)[O-])c(Sc2cccc(Cl)c2Cl)s1 | – |
| 16.4 µM | 18 µM | – | CC(=O)c1nc([N+](=O)[O-])c(Sc2ccc(Cl)c(Cl)c2)s1 | – |
| 24.8 µM | > 50 µM | – | CC(=O)OC(C)c1nc([N+](=O)[O-])c(Sc2c(Cl)cncc2Cl)s1 (stereo unspecified) | – |
| > 50 µM | > 50 µM | – | CC(=O)c1ncc(Sc2ccc(Cl)c(Cl)c2)s1 | – |
| 11.2 µM | 2.65 µM | – | O=C(NCc1ccc(F)cc1)c1nc([N+](=O)[O-])c(Sc2c(Cl)cncc2Cl)s1 | – |
| 11.8 µM | 26.8 µM | – | CC(NCc1ccccc1)c1nc([N+](=O)[O-])c(Sc2c(Cl)cncc2Cl)s1 (stereo unspecified) | – |
| > 50 µM | > 50 µM | – | CC(=O)c1nc([N+](=O)[O-])c(NCc2ccc(Cl)c(Cl)c2)s1 | – |
| 24 µM | > 50 µM | – | COc1ccc(Sc2sc(C(C)=O)nc2[N+](=O)[O-])cc1OC | – |
| 6.64 µM | 3.65 µM | – | Cc1ccc(CNC(=O)c2nc([N+](=O)[O-])c(Sc3c(Cl)cncc3Cl)s2)cc1 | – |
| 12.4 µM | 40.5 µM | – | O=C(Nc1ccccc1)c1nc([N+](=O)[O-])c(Sc2c(Cl)cncc2Cl)s1 | – |
| 8.45 µM | 0.67 µM | 6.21 µM | CC(=O)c1nc([N+](=O)[O-])c(Sc2c(Cl)cncc2Cl)s1 | 11 µM |
| 12.5 µM | 16.8 µM | – | CC(=O)c1nc([N+](=O)[O-])c(Sc2ccc(Cl)cc2Cl)s1 | – |
| 6.36 µM | 1.35 µM | 3.68 µM | O=C(NCc1cccc(F)c1)c1nc([N+](=O)[O-])c(Sc2c(Cl)cncc2Cl)s1 | 6.11 µM |
| 12 µM | > 50 µM | – | CC(OC(=O)c1ccccc1)c1nc([N+](=O)[O-])c(Sc2c(Cl)cncc2Cl)s1 (stereo unspecified) | – |
| 11.7 µM | 4.49 µM | – | CCCC(=O)OC(C)c1nc([N+](=O)[O-])c(Sc2c(Cl)cncc2Cl)s1 (stereo unspecified) | – |
| 17.3 µM | > 50 µM | – | COc1cccc(Sc2sc(C(C)=O)nc2[N+](=O)[O-])c1 | – |
| 10.2 µM | 6.12 µM | – | CC(=O)c1nc([N+](=O)[O-])c(Sc2ccc(F)cc2F)s1 | – |
